# Measurements as given in patent publication US6969711B2, “Cyclic diamine compounds and medicine containing the same” (Kowa Company, Ltd., priority 1997, dated 2005).
# Assay: Disintegration test (solubility in liquid No. 1 of the Japanese Pharmacopoeia)
# Assay type: physicochemical
# Conditions: simulated gastric fluid, thermodynamic from solid; liquid No. 1 for disintegration test (Japanese Pharmacopoeia), pH 1.2, shaken two hours, room temperature, 0.45 μm filtrate
# Source text: Compounds of the present invention and the compounds mentioned in the previously-filed Japanese Patent Applications Hei-09/88660 (hereinafter, referred to as “A”) and Hei-09/90146 (hereinafter, referred to as “B”) as controls were suspended in a liquid No. 1 for disintegration test regulated by the Japanese Pharmacopoeia, shaken for two hours, allowed to stand at room temperature for one hour and filtered through a membrane filter of 0.45 μm. Absorbance of a mixture of this filtrate with methanol in the same amounts was measured and, from the previously-determined ε1% 1cm values, solubility was calculated.
row,solubility at 2 h,SMILES
1,14000 µg/mL,"CC(C)c1cccc(C(C)C)c1NC(=O)CN1CCN(CCSc2nc3ccccc3o2)CC1 [Example 1, 2-[4-[2-(benzoxazol-2-ylthio)ethyl]-piperazin-1-yl]-N-(2,6-diisopropylphenyl)acetamide]"
2,0.05 µg/mL,"CC(C)c1cccc(C(C)C)c1NC(=O)CCCCCSc1nc2ccccc2o1 [Control 6, 6-(Benzoxazol-2-ylthio)-N-(2,6-diisopropylphenyl)hexanamide, reference compound]"
3,7400 µg/mL,"CC(C)c1cccc(C(C)C)c1NC(=O)CN1CCCN(CCCSc2nc3ccccc3o2)CC1 [Example 13, 2-[4-[3-(benzoxazol-2-ylthio)propyl]-homopiperazin-1-yl]-N-(2,6-diisopropylphenyl)acetamide]"
4,360 to 400 µg/mL,"CC(C)c1cccc(C(C)C)c1NC(=O)CCCCCSc1nc2cc(CN(C)C)ccc2o1 [Control 7, 6-[5-(N,N-Dimethylaminomethyl)-benzoxazol-2-ylthio]-N-(2,6-diisopropylphenyl)hexanamide, reference compound]"
5,170 to 180 µg/mL,"CC(C)c1cccc(C(C)C)c1NC(=O)CCCCCSc1nc2cc(N(C)C)ccc2o1 [Control 8, 6-[5-(N,N-Dimethylamino)-benzoxazol-2-ylthio]-N-(2,6-diisopropylphenyl)hexanamide, reference compound]"
6,17000 µg/mL,"CSc1cc(C)nc(SC)c1NC(=O)CN1CCN(CCSc2nc3ccccc3o2)CC1 [Example 24, 2-[4-[2-(benzoxazol-2-ylthio)ethyl]piperazin-1-yl]-N-(2,4-bis(methylthio)-6-methyl-3-pyridyl)acetamide]"

row,SMILES,solubility at 2 h
1,"CC(C)c1cccc(C(C)C)c1NC(=O)CN1CCN(CCSc2nc3ncccc3o2)CC1 [Example 6, 2-[4-[2-(oxazolo[4,5-b]pyridine-2-ylthio)ethyl]-piperazin-1-yl]-N-(2,6-diisopropylphenyl)acetamide]",35000 µg/mL

# Assay: not given
# Conditions: not given
row,SMILES,melting point
1,"CC(C)c1cccc(C(C)C)c1NC(=O)CN1CCCN(CCCSc2nc3ccccc3o2)CC1 [Example 13, 2-[4-[3-(benzoxazol-2-ylthio)propyl]-homopiperazin-1-yl]-N-(2,6-diisopropylphenyl)acetamide]",109 to 111 °C
2,"CC(C)c1cccc(C(C)C)c1NC(=O)CN1CCN(CCSc2nc3ncccc3o2)CC1 [Example 6, 2-[4-[2-(oxazolo[4,5-b]pyridine-2-ylthio)ethyl]-piperazin-1-yl]-N-(2,6-diisopropylphenyl)acetamide]",153 to 154 °C
3,"CC(C)c1cccc(C(C)C)c1NC(=O)CN1CCN(CCSc2nc3ccccc3[nH]2)CC1 [Example 3, 2-[4-[2-(benzimidazol-2-ylthio)ethyl]-piperazin-1-yl]-N-(2,6-diisopropylphenyl)acetamide]",207 °C (dec.)
4,CSc1ncccc1NC(=O)CN1CCN(CCSc2nc3ccccc3o2)CC1.Cl.Cl,186 to 189 °C
5,Cc1cc(SC(C)C)c(NC(=O)CN2CCN(CCSc3nc4ccccc4o3)CC2)c(SC(C)C)n1.Cl.Cl,159 to 164 °C
6,CCOP(=O)(OCC)Oc1cc(C(C)C)c(NC(=O)CN2CCN(CCSc3nc4ccccc4o3)CC2)c(C(C)C)c1,108 to 109 °C
7,CSc1cc(C)nc(SC)c1NC(=O)CCN1CCN(CCCSc2nc3ncccc3o2)CC1.Cl.Cl,224 to 227 °C
8,CSc1nc(C)ccc1NC(=O)CN1CCN(CCSc2nc3ccccc3o2)CC1.Cl.Cl,200 to 203 °C
9,CC(C)c1cc(OC(=O)[C@H](C)N)cc(C(C)C)c1NC(=O)CN1CCN(CCSc2nc3ccccc3o2)CC1.O=C(O)C(F)(F)F.O=C(O)C(F)(F)F.O=C(O)C(F)(F)F,183 to 184 °C
10,CC(C)c1ccc(NS(C)(=O)=O)c(C(C)C)c1NC(=O)CN1CCN(CCSc2nc3cccc(C(F)(F)F)c3o2)CC1.O=C(O)/C=C\C(=O)O.O=C(O)/C=C\C(=O)O,172 to 174 °C
11,CC(C)c1cc(OC(=O)[C@H](C)N)cc(C(C)C)c1NC(=O)CN1CCN(CCSc2nc3cccc(C(F)(F)F)c3o2)CC1.O=C(O)C(F)(F)F.O=C(O)C(F)(F)F.O=C(O)C(F)(F)F,124 to 126 °C
12,Cc1cc(SC(C)C)c(NC(=O)CN2CCN(CCSc3nc4ccccc4s3)CC2)c(SC(C)C)n1.Cl.Cl,139 to 142 °C

# Further lines, results first:
row,melting point,SMILES
1,140 to 141 °C,"CSc1cc(C)nc(SC)c1NC(=O)CN1CCN(CCSc2nc3ccccc3o2)CC1 [Example 24, 2-[4-[2-(benzoxazol-2-ylthio)ethyl]piperazin-1-yl]-N-(2,4-bis(methylthio)-6-methyl-3-pyridyl)acetamide]"
2,138 to 140 °C,"CCCCCCCN(CCN1CCN(CCSc2nc3c(C)c(Cl)cc(C(C)C)c3o2)CC1)C(=O)Nc1c(C(C)C)cc(O)cc1C(C)C [Example 116, N-[2-[4-[2-(5-chloro-7-isopropyl-4-methylbenzoxazol-2-ylthio)ethyl]piperazin-1-yl]ethyl]-N′-(2,6-diisopropyl-4-hydroxyphenyl)-N-heptylurea]"
3,120 to 122 °C,"CC(C)c1cccc(C(C)C)c1NC(=O)NCCN1CCN(CCSc2nc3ccccc3[nH]2)CC1 [Example 80, N-[2-[4-[2-(benzimidazol-2-ylthio)ethyl]piperazin-1-yl]ethyl]-N′-(2,6-diisopropylphenyl)urea]"
4,129 to 130 °C,"COc1cc(C(C)C)c(NC(=O)CN2CCN(CCCSc3nc4ccccc4o3)CC2)c(C(C)C)c1 [Example 119, 2-[4-[3-(benzoxazol-2-ylthio)propyl]piperazin-1-yl]-N-(2,6-diisopropyl-4-methoxyphenyl)acetamide]"
5,122 to 123 °C,"COc1cc(C(C)C)c(NC(=O)CN2CCN(CCSc3nc4cccc(C(F)(F)F)c4o3)CC2)c(C(C)C)c1 [Example 86, 2-[4-[2-(7-trifluoromethylbenzoxazol-2-ylthio)ethyl]piperazin-1-yl]-N-(2,6-diisopropyl-4-methoxyphenyl)acetamide]"
6,120 to 122 °C,"CCSC1=C(NC(=O)CN2CCN(CCSc3nc4c(C)c(Cl)cc(C(C)C)c4o3)CC2)C=CC(C)(SCC)N1 (stereo not drawn) [Example 109, 2-[4-[2-(5-chloro-7-isopropyl-4-methylbenzoxazol-2-ylthio)ethyl]piperazin-1-yl]-N-[2,6-bis(ethylthio)-6-methyl-3-pyridyl]acetamide]"
7,105 to 107 °C,"COc1ccc(C(C)C)c(NC(=O)CN2CCN(CCCSc3nc4ccccc4o3)CC2)c1C(C)C [Example 70, 2-[4-[3-(benzoxazol-2-ylthio)propyl]piperazin-1-yl]-N-(2,6-diisopropyl-3-methoxyphenyl)acetamide]"
8,110 to 112 °C,"CSc1cc(C)nc(SC)c1NC(=O)CCN1CCN(CCSc2nc3ccccc3o2)CC1 [Example 27, 3-[4-[2-(benzoxazol-2-ylthio)ethyl]piperazin-1-yl]-N-[2,4-bis(methylthio)-6-methyl-3pyridyl]propanamide]"
9,133 to 134 °C,"Cc1ccc(C(C)C)c2oc(SCCN3CCN(CC(=O)Nc4c(C(C)C)cccc4C(C)C)CC3)nc12 [Example 122, 2-[4-[2-(7-isopropyl-4-methylbenzoxazol-2-ylthio)ethyl]piperazin-1-yl]-N-(2,6-diisopropylphenyl)acetamide]"
10,83 to 85 °C,"COC(=O)c1cccc2nc(SCCCN3CCCN(CC(=O)Nc4c(C(C)C)cccc4C(C)C)CC3)oc12 [Example 14, 2-[4-[3-(7-methoxycarbonylbenzoxazol-2-ylthio)propyl]homopiperazin-1-yl]-N-(2,6-diisopropylphenyl)acetamide]"
11,185 to 186 °C,"COc1cc(C(C)C)c(NC(=O)CN2CCN(CCSc3nc4cccc(C(C)=O)c4o3)CC2)c(C(C)C)c1 [Example 93, 2-[4-[2-(7-acetylbenzoxazol-2-ylthio)ethyl]piperazin-1-yl]-N-(2,6-diisopropyl-4-methoxyphenyl)acetamide]"
12,82 to 84 °C,"CC(C)c1ccc(O)c(C(C)C)c1NC(=O)CN1CCN(CCSc2nc3cccc(C(F)(F)F)c3o2)CC1 [Example 130, 2-[4-[2-(7-trifluoromethylbenzoxazol-2-ylthio)ethyl]piperazin-1-yl]-N-(2,6-diisopropyl-3-hydroxyphenyl)acetamide]"
13,148 to 150 °C,"CSc1ccc(C(C)C)c(NC(=O)CN2CCN(CCSc3nc4ccccc4o3)CC2)c1C(C)C [Example 60, 2-[4-[2-(benzoxazol-2-ylthio)ethyl]piperazin-1-yl]-N-[2,6-diisopropyl-3-(methylthio)phenyl]acetamide]"
14,160 to 161 °C,"CSc1cc(C)nc(SC)c1NC(=O)CN1CCN(CCCSc2nc3ccccc3o2)CC1 [Example 28, 2-[4-[3-(benzoxazol-2-ylthio)propyl]piperazin-1-yl]-N-[2,4-bis(methylthio)-6-methyl-3-pyridyl]acetamide]"
15,181 to 183 °C,"CC(C)c1cccc(C(C)C)c1NC(=O)CN1CCN(CCSc2nc3cccc(-c4cc[nH]n4)c3o2)CC1 [Example 103, 2-[4-[2-[7-(pyrazol-3-yl)benzoxazol-2-ylthio]ethyl]piperazin-1-yl]-N-(2,6-diisopropylphenyl)acetamide]"
16,118 to 119 °C,"CCSc1cc(C)nc(SCC)c1NC(=O)CN1CCN(CCSc2nc3cccc(C(=O)OC)c3o2)CC1 [Example 35, 2-[4-[2-(7-methoxycarbonylbenzoxazol-2-ylthio)ethyl]piperazin-1-yl]-N-[2,4-bis(ethylthio)-6methyl-3-pyridyl)acetamide]"
17,160 to 163 °C,"CC(C)c1cc(C(C)C)c(NC(=O)CN2CCN(CCSc3nc4ccccc4o3)CC2)c(C(C)C)c1 [Example 48, 2-[4-[2-(benzoxazol-2-ylthio)ethyl]piperazin-1-yl]-N-(2,4,6-triisopropylphenyl)acetamide]"
18,60 to 63 °C,"COC(=O)c1cccc2nc(SCCN3CCN(CC(=O)Nc4c(SC(C)C)cc(C)nc4SC(C)C)CC3)oc12 [Example 39, N-[2,4-bis(isopropylthio)-6-methyl-3-pyridyl]-2-[4-[2-(7-methoxycarbonylbenzoxazol-2-ylthio)ethyl]piperazin-1-yl]acetamide]"
19,162 to 164 °C,"CC(C)c1cc(O)cc(C(C)C)c1NC(=O)CN1CCN(CCSc2nc3ccccc3o2)CC1 [Example 72, 2-[4-[2-(benzoxazol-2-ylthio)ethyl]piperazin-1-yl]-N-(2,6-diisopropyl-4-hydroxyphenyl)acetamide]"
20,120 to 121 °C,"CSc1cccc2nc(SCCN3CCN(CC(=O)Nc4c(C(C)C)cccc4C(C)C)CC3)oc12 [Example 112, 2-[4-[2-(7-methylthiobenzoxazol-2-ylthio)ethyl]piperazin-1-yl]-N-(2,6-diisopropylphenyl)acetamide]"
